Source: patent US10221172B2, “Benzothiazole and benzisothiazole-substituted compounds as mGluR4 allosteric potentiators, compositions, and methods of treating neurological dysfunction” (Vanderbilt University, priority 2015, dated 2019)

Molecular target: human mGluR4 (Homo sapiens (Human), UniProt Q14833)
Test: mGluR4 potentiation assay, CHO cells transfected with human mGluR4, Ca2+-sensitive dye, EC20 agonist
Type: cell-based
Conditions: potentiation of mGluR4
Procedure: The disclosed compounds and compositions can be evaluated for their ability to act as a potentiator of metabotropic glutamate receptor activity, in particular mGluR4 activity, by any suitable known methodology known in the art. For example, Chinese Hamster Ovary (CHO) cells transfected with human mGluR4 or HEK cells co-transfected with rat mGluR4 and the G-protein regulated Inwardly Rectifying Potassium channel (GIRK) were plated in clear bottom assay plates for assay in a Hamamatsu FDSS Fluorometric Plate Reader. The cells were loaded with either a Ca2+-sensitive fluorescent dye or the thallium responsive dye and the plates were washed and placed into a suitable kinetic plate reader. For human mGluR4 assays, a fluorescence baseline was established for 3-5 seconds, the disclosed compounds were then added to the cells, and the response in cells was measured. Approximately two and a half minutes later, a concentration of mGluR4 orthosteric agonist (e.g. glutamate or L-AP4) eliciting approximately 20% (EC20) of the maximal agonist response was added to the cells, and the response was measured. Two minutes later, a concentration of mGluR4 agonist (e.g. glutamate or L-AP4) eliciting 80% (EC80) of the maximal agonist response was added to the cells, and the response was measured. For rat mGluR4/GIRK experiments, a baseline was established for approximately five seconds, disclosed compounds were added, and either an EC20 or EC80 concentration of agonist was added approximately two and one half minutes later. Potentiation of the agonist response of mGluR4 by the disclosed compounds was observed as an increase in response to the EC20 concentration of agonist in the presence of compound compared to the response to agonist in the absence of compound. Similarly, antagonism of the agonist response of mGluR4 by the disclosed compounds was observed as a decrease in response to the EC80 concentration of agonist in the presence of compound compared to the response to agonist in the absence of compound.
The above described assay operated in two modes. In the first mode, a range of concentrations of the disclosed compounds are added to cells, followed by a single fixed concentration of agonist. If the compound acts as a potentiatior, an EC50 value for potentiation and a maximum extent of potentiation by the compound at this concentration of agonist is determined by non-linear curve fitting. If the compound acts as a noncompetitive antagonist, an IC50 value is determined by non-linear curve fitting. In the second mode, several fixed concentrations of the disclosed compounds are added to various wells on a plate, followed by a range in concentrations of agonist for each concentration of disclosed compound. The EC50 values for the agonist at each concentration of compound are determined by non-linear curve fitting. A decrease in the EC50 value of the agonist with increasing concentrations of the sample compound (a leftward shift of the agonist concentration-response curve) is an indication of the degree of mGluR4 potentiation at a given concentration of the sample compound. A decrease in the maximal response of the agonist with increasing concentrations of the sample compounds, with or without a rightward shift in agonist potency, is an indication of the degree of noncompetitive antagonism at mGluR4. The second mode also indicates whether the sample compounds also affect the maximum response to mGluR4 to agonists.

[1] = main compound table, species not given
[2] = summary list repeated at the end of the table, species not stated

human mGluR4, sequence (Q14833 33-912): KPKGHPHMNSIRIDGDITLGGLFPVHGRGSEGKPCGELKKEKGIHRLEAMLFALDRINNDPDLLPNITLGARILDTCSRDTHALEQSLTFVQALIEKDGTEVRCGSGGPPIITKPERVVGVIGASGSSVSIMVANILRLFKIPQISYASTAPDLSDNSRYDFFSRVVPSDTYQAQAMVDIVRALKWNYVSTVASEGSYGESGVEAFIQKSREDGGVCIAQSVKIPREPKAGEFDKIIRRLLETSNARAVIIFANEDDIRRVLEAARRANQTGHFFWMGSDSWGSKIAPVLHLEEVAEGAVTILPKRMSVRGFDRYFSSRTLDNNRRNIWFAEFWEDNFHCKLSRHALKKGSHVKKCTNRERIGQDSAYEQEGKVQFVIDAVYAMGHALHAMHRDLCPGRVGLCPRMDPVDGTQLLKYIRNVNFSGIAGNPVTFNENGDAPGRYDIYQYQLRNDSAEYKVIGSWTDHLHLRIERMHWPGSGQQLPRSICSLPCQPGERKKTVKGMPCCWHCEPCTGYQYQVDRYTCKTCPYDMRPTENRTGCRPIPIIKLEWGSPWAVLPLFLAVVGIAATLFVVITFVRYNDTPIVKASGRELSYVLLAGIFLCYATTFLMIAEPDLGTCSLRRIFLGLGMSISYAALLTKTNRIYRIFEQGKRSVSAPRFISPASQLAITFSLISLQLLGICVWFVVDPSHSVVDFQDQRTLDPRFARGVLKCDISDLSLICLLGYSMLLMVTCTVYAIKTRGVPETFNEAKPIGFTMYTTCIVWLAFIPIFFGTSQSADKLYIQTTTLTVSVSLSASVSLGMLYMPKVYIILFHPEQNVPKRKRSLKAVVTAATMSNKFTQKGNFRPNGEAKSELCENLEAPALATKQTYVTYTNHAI

SMILES | EC50 [1] [nM] | EC50 [2] [nM]
c1cnc2c(Nc3ccc4c(C5CC5)nsc4c3)n[nH]c2c1 [Example 36, 3-cyclopropyl-N-(1H-pyrazolo [4,3-b]pyridin-3-yl) benzo[d]isothiazol-6-amine] | 78.2 | 78.2
Cc1nsc2cc(Nc3n[nH]c4cccnc34)cnc12 [Example 39, 3-methyl-N-(1H-pyrazolo [4,3-b]pyridin-3-yl)isothiazolo[4,5-b] pyridin-6-amine] | 157 | 157
OCc1nsc2cc(Nc3n[nH]c4cccnc34)cnc12 [Example 47, (6-((1H-pyrazolo[4,3-b]pyridin-3-yl)amino)isothiazolo[4,5-b]pyridin-3-yl)methanol] | 1060 | 1060
O=C(NC1CC(F)(F)C1)c1nsc2cc(Nc3n[nH]c4nccnc34)ccc12 [Example 30, 6-((1H-pyrazolo[3,4-b]pyrazin-3-yl)amino)-N-(3,3-difluorocyclobutyl) benzo[d] isothiazole-3-carboxamide] | 42.6 | 42.6
c1ccc(-c2nsc3cc(Nc4n[nH]c5cccnc45)ccc23)cc1 [Example 43, 3-phenyl-N-(1H-pyrazolo [4,3-b]pyridin-3-yl)benzo[d]isothiazol-6-amine] | 226 | 226
CC(C)(C)Cc1nsc2cc(Nc3n[nH]c4ncccc34)ccc12 [Example 22, 3-neopentyl-N-(1H-pyrazolo[3,4-b]pyridin-3-yl)benzo[d] isothiazol-6-amine] | 884 | 884
CCCc1nsc2cc(Nc3n[nH]c4ncccc34)ccc12 [Example 26, 3-propyl-N-(1H-pyrazolo[3,4-b]pyridin-3-yl)benzo[d]isothiazol-6-amine] | 220 | 220
c1cnc2c(Nc3cnc4c(CN5CCOCC5)nsc4c3)n[nH]c2c1 [Example 54, 3-(morpholinomethyl)-N-(1H-pyrazolo[4,3-b]pyridin-3-yl)isothiazolo[4,5-b] pyridin-6-amine] | 630 | 630
CC(C)(C)C1CCN(Cc2nsc3cc(Nc4n[nH]c5cccnc45)cnc23)CC1 [Example 56, 3-((4-(tert-butyl)piperidin-1-yl)methyl)-N-(1H-pyrazolo[4,3-b]pyridin-3-yl)isothiazolo[4,5-b] pyridin-6-amine] | 1390 | 1390
CC(=O)N1CCC(c2nsc3cc(Nc4n[nH]c5ncccc45)ccc23)CC1 [Example 64, 1-(4-(6-((1H-pyrazolo[3,4-b]pyridin-3-yl)amino)benzo[d]isothiazol-3-yl)piperidin-1-yl)ethan-1-one] | 409 | 409
Cc1nsc2cc(Nc3n[nH]c4ncccc34)cnc12 [Example 48, 3-methyl-N-(1H-pyrazolo [3,4-b]pyridin-3-yl)isothiazolo[4,5-b] pyridin-6-amine] | 180 | 180
CN(Cc1nsc2cc(Nc3n[nH]c4cccnc34)cnc12)C1CC(F)(F)C1 [Example 52, 3-(((3,3-difluoro-cyclobutyl) (methyl)amino)methyl)-N-(1H-pyrazolo[4,3-b]pyridin-3-yl)isothiazolo[4,5-b] pyridin-6-amine] | 334 | 334
c1cnc2c(Nc3ccc4c(-c5ccsc5)nsc4c3)n[nH]c2n1 [Example 46, N-(1H-pyrazolo[3,4-b]pyrazin-3-yl)-3-(thiophen-3-yl)benzo[d] isothiazol-6-amine] | 144 | 144
O=C(C1CCOCC1)N1CCC(c2nsc3cc(Nc4n[nH]c5cccnc45)ccc23)CC1 [Example 72, (4-(6-((1H-pyrazolo [4,3-b]pyridin-3-yl)amino)benzo[d]isothiazol-3-yl)piperidin-1-yl) (tetrahydro-2H-pyran-4-yl)methanone] | 1200 | 1200
c1cnc2[nH]nc(Nc3cnc4c(CN5CCCCC5)nsc4c3)c2c1 [Example 49, 3-(piperidin-1-ylmethyl)-N-(1H-pyrazolo[3,4-b]pyridin-3-yl)isothiazolo[4,5-b] pyridin-6-amine] | 1560 | 1560
O=C(NC1CC(F)(F)C1)c1nsc2cc(Nc3n[nH]c4cccnc34)ccc12 [Example 4, 6-((1H-pyrazolo[4,3-b]pyridin-3-yl)amino)-N-(3,3-difluorocyclobutyl)benzo[d] isothiazole-3-carboxamide] | 32 | 32
CN1CCC2(CCN(C(=O)c3nsc4cc(Nc5n[nH]c6nccnc56)ccc34)CC2)C1=O [Example 31, 8-(6-((1H-pyrazolo[3,4-b]pyrazin-3-yl)amino)benzo[d]isothiazole-3-carbonyl)-2-methyl-2,8-diazaspiro[4.5]decan-1-one] | 1210 | 1210

Results, then the compound that gave them:

EC50 [1] [nM] | EC50 [2] [nM] | SMILES
325 | 325 | O=C(c1nsc2cc(Nc3n[nH]c4cccnc34)ccc12)N1CCC(F)(F)C1 [Example 3, (6-((1H-pyrazolo [4,3-b]pyridin-3-yl)amino)benzo[d]isothiazol-3-yl) (3,3-difluoropyrrolidin-1-yl) methanone]
388 | 388 | O=C(C1CC1)N1CCC(c2nsc3cc(Nc4n[nH]c5cccnc45)ccc23)CC1 [Example 71, (4-(6-((1H-pyrazolo [4,3-b]pyridin-3-yl)amino)benzo[d]isothiazol-3-yl)piperidin-1-yl) (cyclopropyl) methanone]
607 | 607 | O=C(c1nsc2cc(Nc3n[nH]c4cccnc34)ccc12)N1CCCOCC1 [Example 17, (6-((1H-pyrazolo[4,3-b]pyridin-3-yl)amino)benzo[d]isothiazol-3-yl)(1,4-oxazepan-4-yl)methanone]
1140 | 1140 | CN1CCN(C(=O)c2nsc3cc(Nc4n[nH]c5cccnc45)ccc23)CC1 [Example 12, (6-((1H-pyrazolo [4,3-b]pyridin-3-yl)amino)benzo[d]isothiazol-3-yl)(4-methylpiperazin-1-yl) methanone]
164 | 164 | CN(C(=O)c1nsc2cc(Nc3n[nH]c4cccnc34)ccc12)C1CC(F)(F)C1 [Example 15, 6-((1H-pyrazolo[4,3-b]pyridin-3-yl)amino)-N-(3,3-difluorocyclobutyl)-N-methylbenzo[d] isothiazole-3-carboxamide]
50 | 50 | O=C(c1nsc2cc(Nc3n[nH]c4cccnc34)ccc12)N1CCC(C(F)(F)F)CC1 [Example 21, (6-((1H-pyrazolo [4,3-b]pyridin-3-yl)amino)benzo[d]isothiazol-3-yl) (4-(trifluoromethyl)piperidin-1-yl) methanone]
517 | 517 | CC1CC(C)CN(C(=O)c2nsc3cc(Nc4n[nH]c5cccnc45)ccc23)C1 (centres unmarked) [Example 18, (6-((1H-pyrazolo [4,3-b]pyridin-3-yl)amino)benzo[d]isothiazol-3-yl)(3,5-dimethylpiperidin-1-yl) methanone]
249 | 249 | O=C(c1nsc2cc(Nc3n[nH]c4cccnc34)ccc12)N1CCC(F)CC1 [Example 20, (6-((1H-pyrazolo [4,3-b]pyridin-3-yl)amino)benzo [d]isothiazol-3-yl) (4-fluoropiperidin-1-yl)methanone]
85 | 85 | O=C(c1nsc2cc(Nc3n[nH]c4cccnc34)ccc12)N1CCSCC1 [Example 16, (6-((1H-pyrazolo [4,3-b]pyridin-3-yl)amino)benzo[d]isothiazol-3-yl)(thiomorpholino) methanone]
233 | 233 | O=C(c1nsc2cc(Nc3n[nH]c4cccnc34)ccc12)N1CCCC(F)(F)C1 [Example 9, (6-((1H-pyrazolo [4,3-b]pyridin-3-yl)amino)benzo[d]isothiazol-3-yl) (3,3-difluoropiperidin-1-yl)methanone]
1610 | 1610 | O=C(c1nsc2cc(Nc3n[nH]c4cccnc34)ccc12)N1CCN2CCCC2C1 (centres unmarked) [Example 13, (6-((1H-pyrazolo [4,3-b]pyridin-3-yl)amino)benzo[d]isothiazol-3-yl)(hexahydropyrrolo [1,2-a]pyrazin-2(1H)-yl)methanone]
